# Source: patent US20170121344A1 (Siga Technologies, Inc., priority 2009, published 2017)
# Where two headings read alike, the source gives them in different places.
# Assays:
# [1] = system: DENV-3; assay: Viral yield assay against DENV-3 in Vero cells; type: cell-based; conditions: Dengue virus
# Summary of the method: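 Progeny virus from compound-treated Vero monolayers infected at an MOI of 0.1 is collected after 48 h at 37° C and titered on Vero cells. DMSO serves as control.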
# [2] = system: DENV-1; assay: Viral yield assay against DENV-1 in Vero cells; type: cell-based; conditions: Dengue virus
# Summary of the method: (§1)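 Yield reduction, Vero; MOI 0.1; compound vs DMSO; 37° C; harvest 48 h p.i.; titer on Vero; EC50 fitted. Other serotypes run the same way.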
# [3] = system: Dengue-2 (Strain New Guinea C); assay: Viral yield assay against Dengue-2 in Vero cells; type: cell-based, Dengue virus; conditions: Dengue virus, read-out: Activity (EC50 in μM) DENV-2
# Summary of the method: as §1
# [4] = system: DENV-4; assay: Viral yield assay against DENV-4 in Vero cells; type: cell-based; conditions: Dengue virus
# Summary of the method: as §1
# [5] = DENV2, viral yield assay, Vero cells, MOI 0.1, 48 hours post infection
SMILES,"EC50 ([1]; DENV3, viral yield assay) [µM]","EC50 ([2]; DENV1, viral yield assay) [µM]","EC50 [3, 5] [µM]","EC50 ([4]; DENV4, viral yield assay) [µM]",EC50 ([1]; DENV3) [µM],EC50 ([2]; DENV1) [µM],"EC50 ([3]; DENV2, Vero cells) [µM]",EC50 ([4]; DENV4) [µM],"EC50 ([3]; DENV2, Vero, 48 h) [µM]"
"COc1ccc(-c2ccc3c(N)c(C(=O)Nc4ccc(Cl)cc4)sc3n2)cc1 [Compound 493, 3-amino-N-(4-chlorophenyl)-6-(4-methoxyphenyl)thieno[2,3-b]pyridine-2-carboxamide]",< 5,< 5,< 5,< 5,–,–,–,–,–
"Nc1c(C(=O)Nc2ccc(OC(F)F)cc2)sc2nc(-c3cccc(OC(F)F)c3)ccc12 [Compound 345, 3-amino-6-[3-(difluoromethoxy)phenyl]-N-[4-(difluoromethoxy)phenyl]thieno[2,3-b]pyridine-2-carboxamide]",< 5,< 5,< 5,< 5,–,–,–,–,–
"CCC(C)c1ccc(NC(=O)c2sc3nc(-c4cccc(OC)c4)ccc3c2N)cc1 (stereo not shown) [Compound 555, 3-amino-6-(3-methoxyphenyl)-N-(4-sec-butylphenyl)thieno[2,3-b]pyridine-2-carboxamide]",< 5,< 5,< 5,< 5,–,–,–,–,–
"Cc1ccc(NC(=O)c2sc3nc(-c4ccc(C)cc4)ccc3c2N)cc1 [Compound 636, 3-amino-N,6-bis(p-tolyl)thieno[2,3-b] pyridine-2-carboxamide]",< 5,< 5,< 5,< 5,–,–,–,–,–
"Cc1ccc2c(N)c(C(=O)Nc3nnc(-c4ccccc4)s3)sc2n1 [Compound 284, 3-amino-6-methyl-N-(5-phenyl-1,3,4-thiadiazol-2-yl)thieno[2,3-b]pyridine-2-carboxamide]",5 to 25,< 5,< 5,> 25,–,–,–,–,–
"COc1cccc(-c2ccc3c(N)c(C(=O)Nc4cccc(C(F)(F)F)c4)sc3n2)c1 [Compound 450, 3-amino-6-(3-methoxyphenyl)-N-[3-(trifluoromethyl)phenyl]thieno[2,3-b] pyridine-2-carboxamide]",< 5,< 5,< 5,< 5,–,–,–,–,–
"Nc1c(C(=O)Nc2ccc(OC(F)(F)F)cc2)sc2nc(-c3cccc(OC(F)F)c3)ccc12 [Compound 339, 3-amino-6-[3-(difluoromethoxy)phenyl]-N-[4-(trifluoromethoxy)phenyl]thieno[2,3-b]pyridine-2-carboxamide]",< 5,< 5,< 5,< 5,–,–,–,–,–
"COc1cccc(-c2ccc3c(N)c(C(=O)Nc4cccc(C)c4)sc3n2)c1 [Compound 547, 3-amino-6-(3-mehtoxyphenyl)-N-(m-tolyl)thieno[2,3-b]pyridine-2-carboxamide]",< 5,< 5,< 5,< 5,–,–,–,–,–
"COc1ccc(NC(=O)c2sc3nc(-c4cccs4)ccc3c2N)cc1 [Compound 427, 3-amino-N-(4-methoxyphenyl)-6-(2-thienyl)thieno[2,3-b]pyridine-2-carboxamide]",< 5,< 5,< 5,< 5,–,–,–,–,–
"O=C(O)CC(=O)Nc1c(C(=O)Nc2cccc(C(F)(F)F)c2)sc2nc(-c3cccs3)ccc12 [Compound 302, 3-oxo-3-[[6-(2-thienyl)-2-[[3-(trifluoromethyl)phenyl]carbamoyl]thieno[2,3-b]pyridin-3-yl]amino]propanoic acid]",–,–,–,–,5 to 25,< 5,< 5,< 5,–
"O=C(Nc1c(C(=O)Nc2nnc(-c3ccccc3)s2)sc2nc3c(cc12)CCCCC3)c1ccccc1 [Compound 285, 3-benzamido-N-(5-phenyl-1,3,4-thiadiazol-2-yl)-6,7,8,9-tetrahydro-5H-cyclohepta[b]thieno[3,2-e]pyridine-2-carboxamide]",–,–,–,–,< 5,< 5,< 5,< 5,–
"Cc1ccc(NC(=O)c2sc3nc(-c4cccs4)ccc3c2N)cc1C [Compound 414, 3-amino-N-(3,4-dimethylphenyl)-6-(2-thienyl)thieno[2,3-b]pyridine-2-carboxamide]",< 5,< 5,< 5,< 5,–,–,–,–,–
"COc1ccc(NC(=O)c2sc3nc(-c4ccc(F)cc4)ccc3c2N)cc1 [Compound 535, 3-amino-6-(4-fluorophenyl)-N-(4-methoxyphenyl)thieno[2,3-b]pyridine-2-carboxamide]",< 5,< 5,< 5,< 5,–,–,–,–,–
"Nc1c(C(=O)Nc2ccc(OC(F)F)cc2)sc2nc(-c3ccc(Cl)cc3)ccc12 [Compound 340, 3-amino-6-(4-chlorophenyl)-N-[4-(difluoro-methoxy)phe-nyl]thieno[2,3-b]pyridine-2-carboxamide]",< 5,< 5,< 5,< 5,–,–,–,–,–
"COc1cccc(-c2ccc3c(N)c(C(=O)Nc4ccccc4SCC(C)C)sc3n2)c1 [Compound 571, 3-amino-N-(2-isobutylsulfanylphenyl)-6-(3-methoxyphenyl)thieno[2,3-b] pyridine-2-carboxamide]",< 5,< 5,< 5,< 5,–,–,–,–,–
"CCCCSc1ccccc1NC(=O)c1sc2nc(-c3cccc(OC)c3)ccc2c1N [Compound 572, 3-amino-N-(2-butylsulfanylphenyl)-6-(3-methoxyphenyl)thieno[2,3-b]pyridine-2-carboxamide]",< 5,< 5,< 5,< 5,–,–,–,–,–
"Nc1c(C(=O)Nc2ccc(Br)cc2)sc2nc(-c3ccco3)ccc12 [Compound 439, 3-amino-N-(4-bromophenyl)-6-(2-furyl)thieno[2,3-b]pyridine-2-carboxamide]",< 5,< 5,–,< 5,–,–,–,–,< 5
"CC(F)(F)c1ccc(NC(=O)c2sc3nc(-c4ccc(Cl)cc4)ccc3c2N)cc1 [Compound 338, 3-amino-6-(4-chlorophenyl)-N-[4-(1,1-difluoro-ethyl)phenyl] thieno[2,3-b] pyridine-2-carboxamide]",< 5,< 5,< 5,< 5,–,–,–,–,–
"CCOC(=O)c1ccc(NC(=O)c2sc3nc(-c4ccc(C)cc4)ccc3c2N)cc1 [Compound 638, ethyl 4-[[3-amino-6-(p-tolyl)thieno [2,3-b]pyridine-2-carbonyl]amino] benzoate]",< 5,< 5,< 5,< 5,–,–,–,–,–
"CCOC(=O)CCC(=O)Nc1c(C(=O)Nc2cccc(C(F)(F)F)c2)sc2nc(-c3cccs3)ccc12 [Compound 310, Ethyl 4-oxo-4-[[6-(2-thienyl)-2-[[3-(trifluoromethyl)phenyl]carbamoyl]thieno[2,3-b]pyridin-3-yl]amino]butanoate]",–,–,–,–,< 5,< 5,< 5,< 5,–
"O=C(O)CCC(=O)Nc1c(C(=O)Nc2cccc(C(F)(F)F)c2)sc2nc(-c3cccs3)ccc12 [Compound 311, 4-oxo-4-[[6-(2-thienyl)-2-[[3-(trifluoromethyl)phenyl]carbamoyl]thieno[2,3-b]pyridin-3-yl]amino]butanoic acid]",–,–,–,–,< 5,< 5,< 5,< 5,–
"Nc1c(C(=O)Nc2ccc(Cl)c(Cl)c2)sc2nc(-c3ccc(Cl)cc3)ccc12 [Compound 342, 3-amino-6-(4-chlorophenyl)-N-(3,4-dichloro-phenyl)thieno [2,3-b]pyridine-2-carboxamide]",< 5,< 5,< 5,< 5,–,–,–,–,–
